According to the NIST ThermoML archive (doi:10.1016/j.fluid.2010.01.023):

Test: xn = mol fraction of the nth substance listed
Settings: Fluid (supercritical or subcritical phases), quasistatic thermogram and barogram, x2 = 0.7393

N [ammonia] + O
Settings	thermal pressure coefficient [kPa/K]
330.88 K, Mass density=540.25 kg/m3	7
349.52 K, Mass density=540.25 kg/m3	12
366.71 K, Mass density=540.25 kg/m3	17
397.73 K, Mass density=540.25 kg/m3	32
402.59 K, Mass density=671.23 kg/m3	30
407.37 K, Mass density=649.65 kg/m3	37
407.57 K, Mass density=649.65 kg/m3	37
407.79 K, Mass density=649.65 kg/m3	40
421.43 K, Mass density=540.25 kg/m3	43
446.89 K, Mass density=540.25 kg/m3	58
473.33 K, Mass density=540.25 kg/m3	77
478.28 K, Mass density=671.23 kg/m3	86
485.04 K, Mass density=671.23 kg/m3	86
492.71 K, Mass density=671.23 kg/m3	87
494.07 K, Mass density=540.25 kg/m3	97
498.62 K, Mass density=671.23 kg/m3	97
507.04 K, Mass density=671.23 kg/m3	118
508.36 K, Mass density=671.23 kg/m3	941
509.3 K, Mass density=649.65 kg/m3	106
509.3 K, Mass density=671.23 kg/m3	935
513.52 K, Mass density=671.23 kg/m3	976
514.53 K, Mass density=649.65 kg/m3	119
516.77 K, Mass density=540.25 kg/m3	116
517.23 K, Mass density=540.25 kg/m3	119
519.21 K, Mass density=649.65 kg/m3	137
519.86 K, Mass density=649.65 kg/m3	896
520.05 K, Mass density=649.65 kg/m3	897
520.42 K, Mass density=649.65 kg/m3	899
521.54 K, Mass density=649.65 kg/m3	899
527.01 K, Mass density=649.65 kg/m3	915
527.03 K, Mass density=456.58 kg/m3	125
530.51 K, Mass density=552.58 kg/m3	130
530.67 K, Mass density=594.32 kg/m3	131
530.98 K, Mass density=476.25 kg/m3	129
534.1 K, Mass density=594.32 kg/m3	139
536.84 K, Mass density=540.25 kg/m3	135
537.29 K, Mass density=540.25 kg/m3	135
539.15 K, Mass density=594.32 kg/m3	145
539.88 K, Mass density=552.58 kg/m3	138
540.06 K, Mass density=476.25 kg/m3	137
540.79 K, Mass density=476.25 kg/m3	137
541.46 K, Mass density=594.32 kg/m3	152
541.53 K, Mass density=456.58 kg/m3	139
542.16 K, Mass density=594.32 kg/m3	153
544.61 K, Mass density=594.32 kg/m3	158
545.26 K, Mass density=594.32 kg/m3	161
546.16 K, Mass density=594.32 kg/m3	744
546.26 K, Mass density=594.32 kg/m3	736
548.44 K, Mass density=476.25 kg/m3	146
549.77 K, Mass density=594.32 kg/m3	742
550.79 K, Mass density=552.58 kg/m3	152
551.43 K, Mass density=552.58 kg/m3	154
552.99 K, Mass density=456.58 kg/m3	160
553.25 K, Mass density=456.58 kg/m3	154
553.7 K, Mass density=376.89 kg/m3	161
554.5 K, Mass density=552.58 kg/m3	156
555.04 K, Mass density=552.58 kg/m3	159
556.55 K, Mass density=540.25 kg/m3	159
556.9 K, Mass density=456.58 kg/m3	158
558.82 K, Mass density=552.58 kg/m3	167
559.36 K, Mass density=476.25 kg/m3	160
560.44 K, Mass density=552.58 kg/m3	171
562 K, Mass density=552.58 kg/m3	654
562.66 K, Mass density=540.25 kg/m3	177
563.63 K, Mass density=342.18 kg/m3	162
563.98 K, Mass density=540.25 kg/m3	181
